Assay results published in PubChem BioAssay AID328 (DTP/NCI, 2004).
Several values for one entry are separate records, joined by “and”; a condition that tells them apart may be missing. Equal entries are not always repeated. Inconclusive results and toxic doses are left out.

Test system: BDF1 mice, P388 leukemia ip, median survival T/C
Assay: NCI In Vivo Anticancer Drug Screen. Data for tumor model P388 Leukemia (intraperitoneal) in B6D2F1 (BDF1) mice
Details: endpoint: median survival time, higher = longer survival
Summary of the method: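 In tumour-bearing mice, survival after compound treatment is set against the vehicle group and given as a quotient.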

[1] = dose: 100.0 mg/kg/injection, schedule: Q01DX009 (ip), vehicle: saline with Tween-80
[2] = dose: 200.0 mg/kg/injection, schedule: Q01DX009 (ip), vehicle: saline with Tween-80
[3] = dose: 400.0 mg/kg/injection, schedule: Q01DX009 (ip), vehicle: saline with Tween-80
[4] = dose: 100.0 mg/kg/injection, schedule: Q01DX009 (ip), vehicle: Klucel (hydroxypropylcellulose) (HPC)
[5] = dose: 200.0 mg/kg/injection, schedule: Q01DX009 (ip), vehicle: Klucel (hydroxypropylcellulose) (HPC)
[6] = dose: 4.0 mg/kg/injection, schedule: Q01DX009 (ip), vehicle: saline
[7] = dose: 100.0 mg/kg/injection, schedule: Q04DX003 (ip), vehicle: saline
[8] = dose: 100.0 mg/kg/injection, schedule: Q04DX003 (ip), vehicle: Klucel (hydroxypropylcellulose) (HPC)

SMILES: Nc1ncnc2c1ncn2C1OC(COP(=O)(O)O)C(O)C1O (stereo unspecified)
- T/C (dose: 18.8 mg/kg/injection, schedule: Q03HX016 (ip), vehicle: saline): 121 % of control
- T/C (dose: 100.0 mg/kg/injection, schedule: Q03HX016 (ip), vehicle: saline): 157 % of control
- T/C (dose: 100.0 mg/kg/injection, schedule: Q03HX024 (ip), vehicle: saline): 151 % of control
- T/C (dose: 150.0 mg/kg/injection, schedule: Q03HX016 (ip), vehicle: saline): 169 % of control
- T/C (dose: 150.0 mg/kg/injection, schedule: Q03HX024 (ip), vehicle: saline): 178 % of control

SMILES: Brc1cnc(OCc2ccccc2)nc1OCc1ccccc1
- T/C [1]: 103 % of control
- T/C (dose: 100.0 mg/kg/injection, schedule: Q04DX003 (ip), vehicle: saline with Tween-80): 104 % of control
- T/C [2]: 103 % of control
- T/C (dose: 200.0 mg/kg/injection, schedule: Q04DX003 (ip), vehicle: saline with Tween-80): 104 % of control
- T/C [3]: 107 % of control
- T/C (dose: 400.0 mg/kg/injection, schedule: Q04DX003 (ip), vehicle: saline with Tween-80): 108 % of control

SMILES: Oc1ccccc1/C=N\c1nccs1
- T/C (dose: 25.0 mg/kg/injection, schedule: Q01DX009 (ip), vehicle: Klucel (hydroxypropylcellulose) (HPC)): 111 % of control
- T/C (dose: 50.0 mg/kg/injection, schedule: Q01DX009 (ip), vehicle: Klucel (hydroxypropylcellulose) (HPC)): 96 % of control and 109 % of control
- T/C [4]: 96 % of control and 118 % of control
- T/C [5]: 122 % of control and 123 % of control

SMILES: C#CC[As+](c1ccccc1)(c1ccccc1)c1ccccc1
- T/C (dose: 3.0 mg/kg/injection, schedule: Q01DX009 (ip), vehicle: Klucel (hydroxypropylcellulose) (HPC)): 121 % of control
- T/C (dose: 5.3 mg/kg/injection, schedule: Q04DX003 (ip), vehicle: Klucel (hydroxypropylcellulose) (HPC)): 117 % of control
- T/C (dose: 12.0 mg/kg/injection, schedule: Q04DX003 (ip), vehicle: Klucel (hydroxypropylcellulose) (HPC)): 104 % of control and 113 % of control
- T/C (dose: 25.0 mg/kg/injection, schedule: Q04DX003 (ip), vehicle: Klucel (hydroxypropylcellulose) (HPC)): 109 % of control

SMILES: CC(=O)OC/C=C(C)/C=C/C=C(C)/C=C/C1=C(C)CCCC1(C)C
- T/C (dose: 100.0 mg/kg/injection, schedule: Q01DX010 (ip), vehicle: acetone): 107 % of control
- T/C (dose: 200.0 mg/kg/injection, schedule: Q01DX010 (ip), vehicle: acetone): 89 % of control
- T/C (dose: 800.0 mg/kg/injection, schedule: Q01DX010 (ip), vehicle: acetone): 121 % of control

SMILES: COc1cccc(/C=C/C(=O)O)c1OC
- T/C (dose: 25.0 mg/kg/injection, schedule: Q04DX003 (ip), vehicle: water): 106 % of control
- T/C (dose: 50.0 mg/kg/injection, schedule: Q04DX003 (ip), vehicle: water): 103 % of control
- T/C (dose: 100.0 mg/kg/injection, schedule: Q04DX003 (ip), vehicle: water): 112 % of control
- T/C (dose: 200.0 mg/kg/injection, schedule: Q04DX003 (ip), vehicle: water): 106 % of control
- T/C (dose: 400.0 mg/kg/injection, schedule: Q04DX003 (ip), vehicle: water): 97 % of control

SMILES: N#CC1(C#N)C(c2ccccc2)C1(C#N)C#N
- T/C (dose: 2.0 mg/kg/injection, schedule: Q01DX009 (ip), vehicle: saline with Tween-80): 120 % of control
- T/C (dose: 2.66 mg/kg/injection, schedule: Q01DX009 (ip), vehicle: saline with Tween-80): 122 % of control
- T/C (dose: 2.66 mg/kg/injection, schedule: Q01DX009 (ip), vehicle: saline): 109 % of control and 120 % of control
- T/C [6]: 108 % of control
- T/C (dose: 6.0 mg/kg/injection, schedule: Q01DX009 (ip), vehicle: saline): 118 % of control
- T/C (dose: 6.25 mg/kg/injection, schedule: Q01DX009 (ip), vehicle: saline with Tween-80): 115 % of control
- T/C (dose: 8.0 mg/kg/injection, schedule: Q01DX009 (ip), vehicle: saline with Tween-80): 120 % of control

SMILES: CCC1COC(CC)N1 (stereo unspecified)
- T/C (dose: 50.0 mg/kg/injection, schedule: Q01DX005 (ip), vehicle: saline with Tween-80): 103 % of control
- T/C (dose: 100.0 mg/kg/injection, schedule: Q01DX005 (ip), vehicle: saline with Tween-80): 110 % of control
- T/C (dose: 200.0 mg/kg/injection, schedule: Q01DX005 (ip), vehicle: saline with Tween-80): 120 % of control

SMILES: O=[N+]([O-])c1ccc(Oc2ccc(C3N(c4ccccc4)CCN3c3ccccc3)cc2)c([N+](=O)[O-])c1
- T/C (dose: 12.5 mg/kg/injection, schedule: Q01DX009 (ip), vehicle: water): 99 % of control
- T/C (dose: 25.0 mg/kg/injection, schedule: Q01DX009 (ip), vehicle: water): 89 % of control
- T/C (dose: 50.0 mg/kg/injection, schedule: Q01DX009 (ip), vehicle: water): 99 % of control
- T/C (dose: 100.0 mg/kg/injection, schedule: Q01DX009 (ip), vehicle: water): 90 % of control
- T/C (dose: 200.0 mg/kg/injection, schedule: Q01DX009 (ip), vehicle: water): 91 % of control

SMILES: Cc1ccc(S(=O)(=O)Oc2ccc(-c3ccc(OS(=O)(=O)c4ccc(C)cc4)cc3)cc2)cc1
- T/C (dose: 50.0 mg/kg/injection, schedule: Q01DX009 (ip), vehicle: saline with Tween-80): 107 % of control
- T/C [1]: 111 % of control
- T/C [2]: 90 % of control
- T/C [3]: 94 % of control

SMILES: Cc1ccc(NCCN(C)C)c2c(=O)c3ccccc3sc12
- T/C (dose: 6.25 mg/kg/injection, schedule: Q01DX009 (ip), vehicle: saline): 96 % of control
- T/C (dose: 12.0 mg/kg/injection, schedule: Q04DX003 (ip), vehicle: saline): 105 % of control
- T/C (dose: 12.5 mg/kg/injection, schedule: Q01DX009 (ip), vehicle: saline): 103 % of control
- T/C (dose: 19.0 mg/kg/injection, schedule: Q04DX003 (ip), vehicle: saline): 120 % of control
- T/C (dose: 25.0 mg/kg/injection, schedule: Q01DX009 (ip), vehicle: saline): 107 % of control
- T/C (dose: 100.0 mg/kg/injection, schedule: Q04DX003 (ip), vehicle: alcohol): 155 % of control
- T/C [7]: 168 % of control and 170 % of control
- T/C (dose: 150.0 mg/kg/injection, schedule: Q04DX003 (ip), vehicle: saline): 205 % of control
- T/C (dose: 200.0 mg/kg/injection, schedule: Q04DX003 (ip), vehicle: alcohol): 100 % of control

SMILES: C=CC(=O)NC(C)C(=O)O (stereo unspecified)
- T/C (dose: 50.0 mg/kg/injection, schedule: Q01DX009 (ip), vehicle: saline): 105 % of control
- T/C (dose: 100.0 mg/kg/injection, schedule: Q01DX009 (ip), vehicle: saline): 105 % of control
- T/C (dose: 200.0 mg/kg/injection, schedule: Q01DX009 (ip), vehicle: saline): 100 % of control

SMILES: O=C1OC(=O)c2c(Br)c(Br)c(Br)c(Br)c21
- T/C (dose: 25.0 mg/kg/injection, schedule: Q01DX009 (ip), vehicle: saline with Tween-80): 109 % of control
- T/C (dose: 56.25 mg/kg/injection, schedule: Q01DX009 (ip), vehicle: saline with Tween-80): 90 % of control
- T/C (dose: 75.0 mg/kg/injection, schedule: Q01DX009 (ip), vehicle: saline with Tween-80): 113 % of control
- T/C (dose: 150.0 mg/kg/injection, schedule: Q01DX009 (ip), vehicle: saline with Tween-80): 109 % of control

SMILES: Cc1ccc(S(=O)(=O)OCCC2CCCCC2COS(=O)(=O)c2ccc(C)cc2)cc1 (stereo unspecified)
- T/C [4]: 105 % of control
- T/C [5]: 100 % of control
- T/C (dose: 400.0 mg/kg/injection, schedule: Q01DX009 (ip), vehicle: Klucel (hydroxypropylcellulose) (HPC)): 110 % of control

SMILES: COC(=O)C(c1ccccc1)C(Br)C(=O)c1ccccc1 (stereo unspecified)
- T/C [8]: 100 % of control
- T/C [5]: 88 % of control
- T/C (dose: 200.0 mg/kg/injection, schedule: Q04DX003 (ip), vehicle: Klucel (hydroxypropylcellulose) (HPC)): 104 % of control
- T/C (dose: 400.0 mg/kg/injection, schedule: Q04DX003 (ip), vehicle: Klucel (hydroxypropylcellulose) (HPC)): 90 % of control

SMILES: N=C(N)CCNC(=O)C1CCC(N)=N1 (stereo unspecified)
- T/C (dose: 2.0 mg/kg/injection, schedule: Q01DX009 (ip), vehicle: saline): 91 % of control
- T/C [6]: 100 % of control
- T/C (dose: 8.0 mg/kg/injection, schedule: Q01DX009 (ip), vehicle: saline): 108 % of control

SMILES: C#CCSc1ncnc2nc[nH]c12
- T/C [7]: 100 % of control
- T/C (dose: 200.0 mg/kg/injection, schedule: Q04DX003 (ip), vehicle: saline): 100 % of control

SMILES: OCCC[P+](c1ccccc1)(c1ccccc1)c1ccccc1
- T/C (dose: 50.0 mg/kg/injection, schedule: Q04DX003 (ip), vehicle: Klucel (hydroxypropylcellulose) (HPC)): 113 % of control
- T/C [8]: 109 % of control
